Measured values as given in patent publication US9066516B2, “Uses of thaxtomin and thaxtomin compositions as herbicides” (priority 2008, dated 2015).

Assays:
Type in all cases: in vivo
redstem; Ammania spp. = assay: Greenhouse study thaxtomin A / sarmentine (Example 9); conditions: 25 days after treatment
Procedure: A strain of S. acidiscabies was grown in oat bran broth for 5 days (25° C., 200 rpm). The whole cell broth was extracted using XAD resin, and the dried crude extract was resuspended in 4% ethanol and 0.2% non-ionic surfactant at a concentration of 10 mg/mL. The diluted extracts containing 0.2 and 0.4 mg thaxtomin A per mL were tested on three weed species (redstem; Ammania spp., smallflower umbrella sedge; Cyperus difformis and sprangletop: Leptochloa uninervia). Other treatments included sarmentine at 2.5 and 5.0 mg/mL, and a combination treatment containing 0.2 mg thaxtomin A and 2.5 mg sarmentine per mL. Each treatment was applied in three replicates. Treated plants were kept in a greenhouse under 12 h light/12 h dark conditions.

barnyard grass = assay: Greenhouse synergy test MBI-005 + commercial herbicides (Example 11); conditions: 14 days
Procedure: (§1) The test species barnyard grass, ragweed, sedge, and broad-leaf mustard were used for the valuation of synergy between MBI-005 and the rice herbicides clomazone, penoxsulam, cyhalofop, fenoxaprop-p-ethyl, bispyribac-sodium, thiobencarb, and propanil.
(§2) There were 3 replicates per treatment which were sprayed with approximately ⅔ ml per replicate. The treatments were completely randomized and kept in a greenhouse at 25° C. The efficacy was rated at 7 and 14 days post treatment.

broad-leaf mustard = assay: as above; conditions: 14 days
Procedure: as §1, §2

sedge = assay: as above; conditions: 14 days
Procedure: as §1, §2

[1] = system: Arrowhead (Sagittaria montevidensis); assay: Post-emergence test of MBI-005, field (Example 13)
Procedure: (§3) In field testing, field soil containing weeds at the 1-5 leaf stage were treated with 38.2 L MBI-005/ha at a spray volume of 374 L/ha. Treatments, including water as the negative control and WeedBGon or Preen Broadleaf as the positive control, were replicated four times and applied twice at a four week interval. The positive control on Late watergrass, Ricefield Bulrush, Smallflower sedge and Arrowhead was an herbicide containing as active ingredient 2,4-D and an organosilicone surfactant was added to MBI-005. Treatments were assessed for % control and % ground cover.

[2] = system: Bermuda buttercup (Oxalis pes-caprae); assay: Post-emergence test of MBI-005, field (Example 13)
Procedure: as §3

Bluegrass (Poa annua) = assay: Post-emergence test of MBI-005, field (Example 13)
Procedure: as §3

[3] = system: Clover (Trifolium hirtum); assay: Post-emergence test of MBI-005, field (Example 13)
Procedure: as §3

[4] = system: Common chickweed (Stellaria media); assay: Post-emergence test of MBI-005, field (Example 13)
Procedure: as §3

[5] = system: Common groundsel (Senecio vulgaris); assay: Post-emergence test of MBI-005, field (Example 13)
Procedure: as §3

[6] = system: Common yellow oxalis (Oxalis pes-caprae); assay: Post-emergence test of MBI-005, field (Example 13)
Procedure: as §3

Eclipta (Eclipta alba) = assay: Post-emergence test of MBI-005, field (Example 13)
Procedure: as §3

[7] = system: Flexuous bittercress (Cardamine flexuosa); assay: Post-emergence test of MBI-005, field (Example 13)
Procedure: as §3

[8] = system: Hairy bittercress (Cardamine hirsuta); assay: Post-emergence test of MBI-005, field (Example 13)
Procedure: as §3

[9] = system: Hairy galinsoga (Galinsoga ciliata); assay: Post-emergence test of MBI-005, field (Example 13)
Procedure: as §3

[10] = system: Henbit (Lamimum amplexicaule); assay: Post-emergence test of MBI-005, field (Example 13)
Procedure: as §3

[11] = system: Late watergrass (Echinochloa phyllopogon); assay: Post-emergence test of MBI-005, field (Example 13)
Procedure: as §3

[12] = system: Marsh watercress (Rorippa islandica); assay: Post-emergence test of MBI-005, field (Example 13)
Procedure: as §3

[13] = system: Nightshade, Eastern Black (Solanum ptychanthum); assay: Post-emergence test of MBI-005, field (Example 13)
Procedure: as §3

[14] = system: Ricefield bullrush (Scirpus mucronatus); assay: Post-emergence test of MBI-005, field (Example 13)
Procedure: as §3

[15] = system: Shepherd's purse (Capsella bursa-pastoris); assay: Post-emergence test of MBI-005, field (Example 13)
Procedure: as §3

[16] = system: Smallflower (Cyperus difformis); assay: Post-emergence test of MBI-005, field (Example 13); conditions: Smallflower (sedge)
Procedure: as §3

[17] = system: Velvetleaf (Abutilon theophrasti); assay: Post-emergence test of MBI-005, field (Example 13)
Procedure: as §3

[18] = system: Bindweed (Convolvulus arvensis); assay: Post-emergence test of MBI-005, lab (Example 13)
Procedure: (§4) To further describe the spectrum of post-emergence activity, tests were conducted in laboratory and field conditions. For laboratory testing, 3-10 plants (depending on the species) at the 1-2 leaf stage plants in 2.5 cm square pots containing Sunshine Mix No. 2 planting media were sprayed at 1 mg MBI-005/mL at a rate of 40 gal/A using a cabinet track sprayer. Negative controls were sprayed with water and positive controls with glufosinate. Pots were randomly placed in a growth room at 25° C. and 50% RH, and watered as necessary. Treatments were replicated five times and evaluated at 7 and 14 days for visual % damage, with 0% indicating no damage and 100% indicating plant death.

[19] = system: Dandelion (Taraxacum oficinale); assay: Post-emergence test of MBI-005, lab (Example 13)
Procedure: as §4

[20] = system: Lambsquarters (Chenopodium album); assay: Post-emergence test of MBI-005, lab (Example 13)
Procedure: as §4

[21] = system: Mallow (Malva parviflora); assay: Post-emergence test of MBI-005, lab (Example 13)
Procedure: as §4

[22] = system: Mustard (Brassica juncea); assay: Post-emergence test of MBI-005, lab (Example 13)
Procedure: as §4

[23] = system: Redstem filaree (Erodium cicutarium); assay: Post-emergence test of MBI-005, lab (Example 13)
Procedure: as §4

[24] = system: Sunflower (Helianthus anuus); assay: Post-emergence test of MBI-005, lab (Example 13)
Procedure: as §4

[25] = system: Yellow nutsedge (Cyperus esculentus); assay: Post-emergence test of MBI-005, lab (Example 13)
Procedure: as §4

CN1C(=O)[C@](O)(Cc2cccc(O)c2)N(C)C(=O)[C@@H]1Cc1c[nH]c2cccc([N+](=O)[O-])c12 [thaxtomin A]
Control of redstem (%) (redstem; Ammania spp.; Thaxtomin A 0.2 mg/mL): 5.0b %
Control of redstem (%) (redstem; Ammania spp.; Thaxtomin A 0.4 mg/mL, *stunted): 11.7c* %
% Control MBI-005 (barnyard grass; MBI-005 0.125 mg/mL (bispyribac-sodium line)): 3.3%
% Control MBI-005 (barnyard grass; MBI-005 0.125 mg/mL (penoxsulam line)): 17.5%
% Control MBI-005 (barnyard grass; MBI-005 0.125 mg/mL (propanil line)): 10.0%
% Control MBI-005 (barnyard grass; MBI-005 0.25 mg/mL (fenoxaprop-p-ethyl line)): 66.7%
% Control MBI-005 (barnyard grass; MBI-005 0.25 mg/mL (thiobencarb line)): 41.7%
% Control MBI-005 (broad-leaf mustard; MBI-005 0.125 mg/mL (cyhalofop line)): 13.3%
% Control MBI-005 (broad-leaf mustard; MBI-005 0.125 mg/mL (fenoxaprop-p-ethyl line)): 45.8%
% Control MBI-005 (broad-leaf mustard; MBI-005 0.125 mg/mL (thiobencarb line)): 54.2%
% Control MBI-005 (broad-leaf mustard; MBI-005 0.25 mg/mL (bispyribac-sodium line)): 37.5%
% Control MBI-005 (broad-leaf mustard; MBI-005 0.25 mg/mL (propanil line)): 58.3%
% Control MBI-005 (sedge; MBI-005 0.01 mg/mL (cyhalofop line)): 20.0%
% Control MBI-005 (sedge; MBI-005 0.01 mg/mL (penoxsulam line)): 20.0%
% Control MBI-005 (sedge; MBI-005 0.02 mg/mL (fenoxaprop-p-ethyl line)): 70.8%
% Control MBI-005 (sedge; MBI-005 0.02 mg/mL (thiobencarb line)): 37.5%
Rating at 1 mg/ml (Post-Emergence % control) [1]: ++++ (91-100)
Rating at 1 mg/ml (Post-Emergence % control) [2]: ++++ (91-100)
Rating at 1 mg/ml (Post-Emergence % control) (Bluegrass (Poa annua)): ++ (51-80)
Rating at 1 mg/ml (Post-Emergence % control) [3]: ++ (51-80)
Rating at 1 mg/ml (Post-Emergence % control) [4]: ++ (51-80)
Rating at 1 mg/ml (Post-Emergence % control) [5]: ++++ (91-100)
Rating at 1 mg/ml (Post-Emergence % control) [6]: ++++ (91-100)
Rating at 1 mg/ml (Post-Emergence % control) (Eclipta (Eclipta alba)): ++ (51-80)
Rating at 1 mg/ml (Post-Emergence % control) [7]: ++ (51-80)
Rating at 1 mg/ml (Post-Emergence % control) [8]: ++ (51-80)
Rating at 1 mg/ml (Post-Emergence % control) [9]: +++ (81-90)
Rating at 1 mg/ml (Post-Emergence % control) [10]: ++++ (91-100)
Rating at 1 mg/ml (Post-Emergence % control) [11]: +++ (81-90)
Rating at 1 mg/ml (Post-Emergence % control) [12]: ++ (51-80)
Rating at 1 mg/ml (Post-Emergence % control) [13]: ++ (51-80)
Rating at 1 mg/ml (Post-Emergence % control) [14]: ++++ (91-100)
Rating at 1 mg/ml (Post-Emergence % control) [15]: ++++ (91-100)
Rating at 1 mg/ml (Post-Emergence % control) [16]: ++++ (91-100)
Rating at 1 mg/ml (Post-Emergence % control) [17]: ++ (51-80)
Rating at 1 mg/ml (Post-Emergence % control) [18]: + (0-50)
Rating at 1 mg/ml (Post-Emergence % control) [19]: ++ (51-80)
Rating at 1 mg/ml (Post-Emergence % control) [20]: +++ (81-90)
Rating at 1 mg/ml (Post-Emergence % control) [21]: + (0-50)
Rating at 1 mg/ml (Post-Emergence % control) [22]: ++++ (91-100)
Rating at 1 mg/ml (Post-Emergence % control) [23]: ++ (51-80)
Rating at 1 mg/ml (Post-Emergence % control) [24]: ++ (51-80)
Rating at 1 mg/ml (Post-Emergence % control) [25]: + (0-50)
